Experimental data taken from paper PMC6053504, “Inhibitory Role of the Mud Crab Short Neuropeptide F in Vitellogenesis and Oocyte Maturation via Autocrine/Paracrine Signaling” (Frontiers in Endocrinology, 2018).
Where no end group is shown, it is not given here.

Legend:
[1] = biological target: T1, Sp-sNPFR (Scylla paramamosain, UniProt A0A345ZFF5); assay: Ligand-receptor activation of signaling, dual-luciferase (pCRE-luc) reporter in HEK293T; type: cell-based; settings: HEK293T transiently co-transfected with Sp-sNPFR/pEGFP-N1, pCRE-luc, pRL-TK; incubation 6 h; dual-luciferase read-out (Figure 3B legend: concentration of cAMP determined); nonlinear curve fitting; mean ± SD, three biological replicates
T1 sequence (A0A345ZFF5 1-458): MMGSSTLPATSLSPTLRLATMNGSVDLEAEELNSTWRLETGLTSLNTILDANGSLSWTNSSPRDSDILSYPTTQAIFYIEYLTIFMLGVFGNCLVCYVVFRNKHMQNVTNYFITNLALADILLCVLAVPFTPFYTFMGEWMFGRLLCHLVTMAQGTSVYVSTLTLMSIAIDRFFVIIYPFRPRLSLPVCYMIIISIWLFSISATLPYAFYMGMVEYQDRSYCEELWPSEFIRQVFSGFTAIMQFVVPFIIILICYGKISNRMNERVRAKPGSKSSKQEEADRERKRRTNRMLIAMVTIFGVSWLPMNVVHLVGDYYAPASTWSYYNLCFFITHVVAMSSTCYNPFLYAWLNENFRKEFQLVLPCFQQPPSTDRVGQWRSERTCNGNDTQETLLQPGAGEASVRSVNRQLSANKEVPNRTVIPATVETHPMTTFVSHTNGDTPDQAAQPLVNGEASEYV
Protocol: Human embryonic kidney cell lines (HEK293T) were maintained in high glucose DMEM (Hyclone) supplemented with 10% fetal bovine serum (Gibco), 100 U/mL penicillin and 100 μg/mL streptomycin (Hyclone) at 37°C in a humidified incubator (Thermo) containing 5% CO2. Cells were seeded overnight in 6-well plates and transiently co-transfected with 1 μg of the Sp-sNPFR/pEGFP-N1 plasmid, 0.8 μg of the reporter gene pCRE-luc, and 0.4 μg of internal control gene pRL-TK using 5 μL Lipofectamine 2000 (Invitrogen) reagent following the manufacturer's protocols. Empty pEGFP-N1 plasmid was used for mock transfection.
HEK293T transiently co-transfected with Sp-sNPFR/pEGFP-N1 and dual-luciferase reporter system vectors were grown to 90% confluency in a 24-well plate. Cells were first treated with synthetic Sp-sNPF peptide mixture and the mixture containing 9 synthetic FLPs (GL Biochem, Table 2) at 1 μM each. Further, various concentrations of individual peptides were used to record dose-dependent curves. After incubation for 6 h, ligand-induced changes in luciferase activity were measured by GloMax® 20/20 Luminometer (Promega) with Dual-Luciferase® Reporter Assay System Kit (Promega).
All values are expressed as mean ± SD. Multiple sequence alignment of sNPFR sequences was performed with ClustalX and embellished by LaTEX TexShade ([57]). Data of ligand-receptor assays were analyzed using nonlinear curve fitting (GraphPad Prism 6.0) to obtain activation curves and EC50 values. The mRNA levels of Sp-Vg and Sp-VgR gene were normalized against the internal control β-actin, and the relative expression was calculated using the 2^−ΔΔCt method. Statistical significance was determined using one-way ANOVA followed by Duncan's multiple range tests. All statistical analyses were performed using IBM SPSS Statistics 20.0. Pictures were drawn by GraphPad Prism 6.0 and modified with Adobe Photoshop CS5.

[2] = system: denuded oocytes; design: method as in 2 sources, one per row (each row's own in cited_ref): ref 76 = [76]; PMID 20382141; doi:10.1016/j.ydbio.2010.03.027; 76. Pang Y Thomas P . Role of G protein-coupled estrogen receptor 1, GPER, in inhibition of oocyte maturation by endogenous estrogens in zebrafish . Dev Biol. ( 2010 ) 342 : 194 – 206 . 10.1016/j.ydbi ||| ref 77 = [77]; PMID 21636738; doi:10.1095/biolreprod.111.091884; 77. Zhou R Tsang AH Lau SW Ge W . Pituitary adenylate cyclase-activating polypeptide (PACAP) and its receptors in the zebrafish ovary: evidence for potentially dual roles of pacap in controlling final; settings: zebrafish, via GPER; cited from earlier work

Compound	EC50 [1] [µM]	inhibition of spontaneous oocyte maturation [2]
APPSMRLRF-NH2 [Sp-sNPF1]	1.2	
KDARTPALRLRF-NH2 [Sp-sNPF3]	8.5	
C[C@]12CC[C@@H]3c4ccc(O)cc4CC[C@H]3[C@@H]1CC[C@@H]2O [E2, Estradiol]		partly inhibited the spontaneous maturation of the denuded oocytes
SMPTLRLRF-NH2 [Sp-sNPF2]	3.8	
